Assays:
Test in all cases: relative viability (nuclei count vs DMSO), 5 days (fraction); higher = more cells survive
CAL-12T = tested on: CAL-12T
In short: (§1)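 Relative viability equals treated-well nuclei counts divided by vehicle-well nuclei counts. Counts came from 4× images of lung cancer cell lines grown in 1536-well plates for 5 days after pin-tool dosing on the day after seeding. Dosing used one drug alone or a fixed anchor-drug dose plus five library-drug doses (not always all listed) in √10 steps, and values are medians of duplicate plates.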

ChaGo-K-1 = tested on: ChaGo-K-1
In short: as §1

EMC-BAC-2 = tested on: EMC-BAC-2
In short: as §1

HCC-366 = tested on: HCC-366
In short: as §1

HCC-78 = tested on: HCC-78
In short: as §1

HOP-62 = tested on: HOP-62
In short: as §1

LC-2-ad = tested on: LC-2-ad
In short: as §1

LK-2 = tested on: LK-2
In short: as §1

NCI-H1355 = tested on: NCI-H1355
In short: as §1

NCI-H1734 = tested on: NCI-H1734
In short: as §1

NCI-H1993 = tested on: NCI-H1993
In short: as §1

NCI-H2009 = tested on: NCI-H2009
In short: as §1

NCI-H2085 = tested on: NCI-H2085
In short: as §1

NCI-H2228 = tested on: NCI-H2228
In short: as §1

NCI-H2347 = tested on: NCI-H2347
In short: as §1

NCI-H2405 = tested on: NCI-H2405
In short: as §1

NCI-H3122 = tested on: NCI-H3122
In short: as §1

NCI-H596 = tested on: NCI-H596
In short: as §1

PC-14 = tested on: PC-14
In short: as §1

RERF-LC-KJ = tested on: RERF-LC-KJ
In short: as §1

SK-MES-1 = tested on: SK-MES-1
In short: as §1

SW 1573 = tested on: SW 1573
In short: as §1

SW 900 = tested on: SW 900
In short: as §1

Q: Which relative viability (CAL-12T; first compound 0.08 µM) does the source give for `CCCCCCCCCCCC1=C(O)C(=O)C=C(O)C1=O` [Embelin] + N=C(N)NC(=N)NCCc1ccccc1 [Phenformin] (partner 250 µM) here?
A: 0.578

Q: And the relative viability (CAL-12T; first compound 0.8 µM)?
A: 0.687

Q: What about the relative viability (CAL-12T; first compound 2.53 µM) of the same compound?
A: 0.554

Q: And the relative viability (CAL-12T; first compound 8 µM)?
A: 0.543

Q: What about the relative viability (ChaGo-K-1; first compound 0.08 µM) of the same compound?
A: 0.547

Q: What about the relative viability (ChaGo-K-1; first compound 0.8 µM) of the same compound?
A: 0.503

Q: And the relative viability (ChaGo-K-1; first compound 2.53 µM)?
A: 0.586

Q: What about the relative viability (ChaGo-K-1; first compound 8 µM) of the same compound?
A: 0.482

Q: And the relative viability (EMC-BAC-2; first compound 0.08 µM)?
A: 0.56

Q: What about the relative viability (EMC-BAC-2; first compound 0.8 µM) of the same compound?
A: 0.669

Q: And the relative viability (EMC-BAC-2; first compound 2.53 µM)?
A: 0.471

Q: And the relative viability (EMC-BAC-2; first compound 8 µM)?
A: 0.504

Q: What about the relative viability (HCC-366; first compound 0.08 µM) of the same compound?
A: 0.646

Q: And the relative viability (HCC-366; first compound 0.8 µM)?
A: 0.638

Q: And the relative viability (HCC-366; first compound 2.53 µM)?
A: 0.644

Q: And the relative viability (HCC-366; first compound 8 µM)?
A: 0.676

Q: What about the relative viability (HCC-78; first compound 0.08 µM) of the same compound?
A: 0.661

Q: And the relative viability (HCC-78; first compound 0.8 µM)?
A: 0.729

Q: What about the relative viability (HCC-78; first compound 2.53 µM) of the same compound?
A: 0.761

Q: And the relative viability (HCC-78; first compound 8 µM)?
A: 0.929

Q: And the relative viability (HOP-62; first compound 0.08 µM)?
A: 0.649

Q: What about the relative viability (HOP-62; first compound 0.8 µM) of the same compound?
A: 0.701

Q: What about the relative viability (HOP-62; first compound 2.53 µM) of the same compound?
A: 0.777

Q: And the relative viability (HOP-62; first compound 8 µM)?
A: 0.719

Q: And the relative viability (LC-2-ad; first compound 0.08 µM)?
A: 0.608

Q: And the relative viability (LC-2-ad; first compound 0.8 µM)?
A: 0.772

Q: And the relative viability (LC-2-ad; first compound 2.53 µM)?
A: 0.617

Q: What about the relative viability (LC-2-ad; first compound 8 µM) of the same compound?
A: 0.367

Q: And the relative viability (LK-2; first compound 0.08 µM)?
A: 0.626

Q: And the relative viability (LK-2; first compound 0.8 µM)?
A: 0.278

Q: And the relative viability (LK-2; first compound 2.53 µM)?
A: 0.735

Q: And the relative viability (LK-2; first compound 8 µM)?
A: 0.26

Q: What about the relative viability (NCI-H1355; first compound 0.08 µM) of the same compound?
A: 0.482

Q: And the relative viability (NCI-H1355; first compound 0.8 µM)?
A: 0.535

Q: What about the relative viability (NCI-H1355; first compound 2.53 µM) of the same compound?
A: 0.442

Q: And the relative viability (NCI-H1355; first compound 8 µM)?
A: 0.392

Q: What about the relative viability (NCI-H1734; first compound 0.08 µM) of the same compound?
A: 0.383

Q: What about the relative viability (NCI-H1734; first compound 0.8 µM) of the same compound?
A: 0.521

Q: What about the relative viability (NCI-H1734; first compound 2.53 µM) of the same compound?
A: 0.526

Q: And the relative viability (NCI-H1734; first compound 8 µM)?
A: 0.327

Q: And the relative viability (NCI-H1993; first compound 0.08 µM)?
A: 0.499

Q: What about the relative viability (NCI-H1993; first compound 0.8 µM) of the same compound?
A: 0.542

Q: And the relative viability (NCI-H1993; first compound 2.53 µM)?
A: 0.489

Q: What about the relative viability (NCI-H1993; first compound 8 µM) of the same compound?
A: 0.467

Q: And the relative viability (NCI-H2009; first compound 0.08 µM)?
A: 0.495

Q: And the relative viability (NCI-H2009; first compound 0.8 µM)?
A: 0.598

Q: And the relative viability (NCI-H2009; first compound 2.53 µM)?
A: 0.44

Q: What about the relative viability (NCI-H2009; first compound 8 µM) of the same compound?
A: 0.295

Q: And the relative viability (NCI-H2085; first compound 0.08 µM)?
A: 0.708

Q: What about the relative viability (NCI-H2085; first compound 0.8 µM) of the same compound?
A: 0.884

Q: What about the relative viability (NCI-H2085; first compound 2.53 µM) of the same compound?
A: 0.73

Q: And the relative viability (NCI-H2085; first compound 8 µM)?
A: 0.664

Q: What about the relative viability (NCI-H2228; first compound 0.08 µM) of the same compound?
A: 0.332

Q: And the relative viability (NCI-H2228; first compound 0.8 µM)?
A: 0.314

Q: And the relative viability (NCI-H2228; first compound 2.53 µM)?
A: 0.403

Q: And the relative viability (NCI-H2228; first compound 8 µM)?
A: 0.309

Q: What about the relative viability (NCI-H2347; first compound 0.08 µM) of the same compound?
A: 0.308

Q: And the relative viability (NCI-H2347; first compound 0.8 µM)?
A: 0.386

Q: And the relative viability (NCI-H2347; first compound 2.53 µM)?
A: 0.345

Q: And the relative viability (NCI-H2347; first compound 8 µM)?
A: 0.377

Q: And the relative viability (NCI-H2405; first compound 0.08 µM)?
A: 0.408

Q: And the relative viability (NCI-H2405; first compound 0.8 µM)?
A: 0.445

Q: And the relative viability (NCI-H2405; first compound 2.53 µM)?
A: 0.367

Q: And the relative viability (NCI-H2405; first compound 8 µM)?
A: 0.341

Q: What about the relative viability (NCI-H3122; first compound 0.08 µM) of the same compound?
A: 0.388

Q: And the relative viability (NCI-H3122; first compound 0.8 µM)?
A: 0.415

Q: And the relative viability (NCI-H3122; first compound 2.53 µM)?
A: 0.384

Q: What about the relative viability (NCI-H3122; first compound 8 µM) of the same compound?
A: 0.282

Q: And the relative viability (NCI-H596; first compound 0.08 µM)?
A: 0.743

Q: And the relative viability (NCI-H596; first compound 0.8 µM)?
A: 0.744

Q: And the relative viability (NCI-H596; first compound 2.53 µM)?
A: 1.03

Q: And the relative viability (NCI-H596; first compound 8 µM)?
A: 0.582

Q: And the relative viability (PC-14; first compound 0.08 µM)?
A: 0.604

Q: What about the relative viability (PC-14; first compound 0.8 µM) of the same compound?
A: 0.988

Q: What about the relative viability (PC-14; first compound 2.53 µM) of the same compound?
A: 0.465

Q: And the relative viability (PC-14; first compound 8 µM)?
A: 0.393

Q: And the relative viability (RERF-LC-KJ; first compound 0.08 µM)?
A: 0.431

Q: And the relative viability (RERF-LC-KJ; first compound 0.8 µM)?
A: 0.461

Q: And the relative viability (RERF-LC-KJ; first compound 2.53 µM)?
A: 0.418

Q: What about the relative viability (RERF-LC-KJ; first compound 8 µM) of the same compound?
A: 0.356

Q: And the relative viability (SK-MES-1; first compound 0.08 µM)?
A: 0.67

Q: And the relative viability (SK-MES-1; first compound 0.8 µM)?
A: 0.694

Q: And the relative viability (SK-MES-1; first compound 2.53 µM)?
A: 0.75

Q: And the relative viability (SK-MES-1; first compound 8 µM)?
A: 0.585

Q: And the relative viability (SW 1573; first compound 0.08 µM)?
A: 0.433

Q: What about the relative viability (SW 1573; first compound 0.8 µM) of the same compound?
A: 0.366

Q: And the relative viability (SW 1573; first compound 2.53 µM)?
A: 0.479

Q: What about the relative viability (SW 1573; first compound 8 µM) of the same compound?
A: 0.376

Q: And the relative viability (SW 900; first compound 0.08 µM)?
A: 0.778

Q: And the relative viability (SW 900; first compound 0.8 µM)?
A: 0.733

Q: And the relative viability (SW 900; first compound 2.53 µM)?
A: 0.655

Q: And the relative viability (SW 900; first compound 8 µM)?
A: 0.481
